{"source": "patent US6737237B1", "about": "“Antimicrobial agents, diagnostic reagents, and vaccines based on unique Apicomplexan parasite components” (Apicomplexan Therapeutics, LLC, priority 1999, dated 2004)", "key": {"[1]": {"test_system": "T. gondii tachyzoites (RH strain)", "test": "microbe, parasite or virus in culture", "type": "cell-based, Toxoplasma gondii", "method": "The improvements are based on microscopic visual imspection of infected and inhibitor treated cultures, and on quantitation of nucleic acid synthesis of the parasite by measure intake of ^3H uracil onto the parasite's nucleic acid. Uracil is not utilized by mammalian cells. […] Only the RH strain tachyzoites, cultured for up to 72 hours, had been used in previously reported assays. The use of Me49, Ptg, and R5 mutant are unique aspects of the methods used in these assays in this invention.\n(§1) In these assays toxicity of a candidate inhibitor was assessed by its ability to prevent growth of human foreskin fibroblasts (HFF) after 4 days and after 8 days as measured by tritiated thymidine uptake and microscopic evaluation. Confluent monolayers of HFF were infected with tachyzoites and bradyzoites. Inhibitor was added one hour later. Non-toxic doses were used in parasite growth inhibition assays. Parasite growth was measured by ability to incorporate tritiated uracil during the last 18 hours of culture.\n(§2) First the toxicity of gabaculine was assessed by its ability to prevent growth of human foreskin fibroblasts (HFF) as measured by ^3H-thymidine uptake and microscopic evaluation. Non-toxic doses were used in parasite growth inhibition assays. in vitro parasite growth inhibition assays included confluent monolayers of HFF infected with tachyzoites (RH) or mutant Me49 (R5). Gabaculine was added 1 hour later. Parasite growth was measured by the ability to incorporate ^3H-uracil during the last 18 hours of culture. In addition, parasite growth was evaluated microscopically in Giemsa stained slides.\nii) in vitro Parasite Growth Inhibition Assays: Confluent monolayers of HFF cells, grown in 96-well plates are infected with T. gondii tachyzoites of the RH strain and serial dilutions of anti-microbial compound are applied 1 hour later. T. gondii growth is assessed in these cultures by their ability to incorporate tritiated uracil (2.5 μCi/well) added during the last 18 hours of culture. After harvesting cells with an automatic cell harvester, uracil incorporation is measured by liquid scintillation."}, "[2]": {"test_system": "mutant R5 strain of T. gondii", "test": "Growth of mutant R5 strain of T. gondii in HFF over 8 days, uracil uptake", "type": "cell-based, Toxoplasma gondii", "settings": "gabaculine 20 mM; P/S", "method": "Improvements were developed in the assays reported by Mack et al. (1984) and Holfels et al. (1994) to measure T. gondii replication in tissue culture. The improvements are based on microscopic visual imspection of infected and inhibitor treated cultures, and on quantitation of nucleic acid synthesis of the parasite by measure intake of ^3H uracil onto the parasite's nucleic acid. Uracil is not utilized by mammalian cells. […]\nFirst the toxicity of gabaculine was assessed by its ability to prevent growth of human foreskin fibroblasts (HFF) as measured by ^3H-thymidine uptake and microscopic evaluation. […] Parasite growth was measured by the ability to incorporate ^3H-uracil during the last 18 hours of culture. In addition, parasite growth was evaluated microscopically in Giemsa stained slides.\nThis mutant strain is atovaquone resistant and posseses certain characterisitics of the tachyzoite stage and certain characteristics of the bradyzoite stage. T. gondii growth is measure by their ability to incorporate tritiated uracil and is expressed as counts/minute (CPM) on the Y-axis. […]"}, "[3]": {"test_system": "human foreskin fibroblasts (HFF)", "test": "Toxicity: growth of fibroblasts, tritiated thymidine uptake and microscopic evaluation", "type": "cell-based", "settings": "similar concentrations (20 mM gabaculine)", "method": "as §1, §2\nd) Inhibitors: Inhibitor compounds are tested over a range of concentrations for toxicity against mammalian cells by assessing their ability to prevent cell growth as measured by tritiated thymidine uptake and inspection of the monolayer using microscopic evaluation. […]"}, "[4]": {"test_system": "C. parvum", "test": "C. parvum infection of MDBKF5D2 cell monolayers, immunofluorescence assay at 48 hours", "type": "cell-based, Cryptosporidium parvum", "settings": "for approximate 95% C1 count (mean parasite count per field): media alone ~1800", "method": "C. parvum oocysts at 50,000/well were incubated at 37° C. (8% CO2) on confluent MDBKF5D2 cell monolayers in 96 well microtiter plates with the following concentrations of each drug. […] The level of infection of each well was determined and analyzed by an immunofluorescence assay at 48 hours using an antibody to C. parvum sporozoites made in rabbits at a concentration of 0.1%. Fluorescein-conjugated goat anti-rabbit antibody was used at a concentration of 1%.\n(8% carbon dioxide) on confluent MDBKF5D2 cell monolayers in 96 well microtiter plates. The level of infection of each well was determined and analyzed by an immunofluorescence assay at 48 hours using as an antibody C. parvum sporozoite rabbit anti-serum (0.1%), and using fluorescein-conjugated goat anti-rabbit antibody (1%). Data are expressed as mean parasite count/field when 16 fields counted at 10× magnification “s.d. of the mean” (FIG. 6)."}, "[5]": {"test_system": "P. falciparum asexual erythrocytic forms", "test": "P. falciparum in vitro growth, clone not stated", "type": "cell-based, Plasmodium falciparum", "method": "This assay is performed in folate deficient RPMI 1640 over a 66 hour incubation in plasma as described by Milhous et al. (1985). Both the W2 clone DHFR resistant phenotype and the D6 clone are used (Odula et al., 1988) (Table 3)."}, "[6]": {"test_system": "D6 clone of Plasmodium falciparum", "test": "P. falciparum in vitro assay (Milhous et al., 1985), D6 clone", "type": "cell-based", "settings": "D6 clone, folate deficient RPMI 1640, 66 hour incubation"}, "[7]": {"test_system": "T. gondii", "test": "Assay for synergy in vitro: inhibitors alone and together on replication of T. gondii (uracil CPM)", "type": "cell-based, Toxoplasma gondii", "settings": "Drug A alone: NPMG (3.25 mM)", "excerpt": "The effect of enzymes in pathways “in parallel” are additive and in “series” are more than the additive effect of either inhibitor used alone (i.e., synergistic). […] The shikimate pathway produces 3,4-dihdroxybenzoate which is converted to ubiquinone, an essential component of the electron transport chain. Thus, NPMG, an inhibitor of EPSP-synthase, indirectly affects ubiquinone production and, thus, the electron transport chain. Similarly, heme is required for production of cytochromes in the electron transport chain. Thus, inhibition of heme production by gabaculine also indirectly affects the conventional electron transport chain. […] T. gondii growth is measured by their ability to incorporate tritiated uracil and is expressed as counts/minute (CPM).\ng) Assays for Synergy in vitro: This is an assy in which ≦50% inhibitor concentrations of two antimicrobial agents are added alone and together to determine whether there is an additive, synergistic or inhibitory interaction. All other aspects of this assay are as described herein."}, "[8]": {"test_system": "T. gondii EPSP synthase", "test": "T. gondii EPSP synthase enzyme activity (HPLC)", "type": "biochemical, Toxoplasma gondii", "settings": "1 mM", "method": "Assays for 4-aminobenzoate and 4-amino-4-deoxychorismate are performed as described previously.” Enzyme Assays: The 5-enolpyruvylshikimate-3-phosphate (EPSP) synthase assay entailed monitoring the generation of EPSP using HPLC. Reaction components were separated using a Hypersil H3APS2 HPLC column (Hichrom Limited, Reading, UK) and a NaH2PO4 elution gradient (50-400 mM). UV spectra (200-300 nm) of the colume eluate were collected to identify eluants. […] The peaks at 215 nm were integrated; the EPSP produced was quantified using a standard curve of authentic EPSP. Parasite extracts were produced at 4° C. by suspension of pure tachyzoites in extraction buffer (50 mM Tris.HCl, pH 7.5, containing complete TM protease inhibitor cocktail [Boehringer Mannheim, 1 tablet per 50 ml buffer]), sonication 3 times for 3 seconds at 30 second intervals, and centrifugation at 12000 g for 15 min. The resulting supernatant was diluted 6-fold with extraction buffer and loaded onto a ResourceQ column (1 ml, Pharmacia) equilibrated with extraction buffer. The bound protein was eluted in a single step using extraction buffer containing 500 mM Kcl. The eluted material was used for enzyme assay. The assay mix contained 1 mM phosphoenolpyruvate, 1 mM SP and 50 mM HEPES, pH 7.5. […] Protein concentrations of lysates were determined using the Lowry method. […]"}, "[9]": {"test_system": "T. gondii isocitrate lyase", "test": "Isocitrate lyase enzyme activity in T. gondii tachyzoite lysates", "type": "biochemical, Toxoplasma gondii", "method": "Parasite lysates were obtained from tachyzoites, suspended in elution buffer (100 mM KCL, 20% gylcerol 7 mM 2-mercaptoethanol, 20 mM Tris-HCL, pH 7.5, and complete protease inhibitor cocktail) [Boehringer Mannheim, 1 table per 50 ml buffer], sonicated 3 times for 3 seconds at 30 sec intervals, and centrifuged at 12,000 g for 15 min. The supernatant collected was applied to a Sephadex® G100 column (25 ml, Pharmacia) equilibrated with elution buffer, eluted with 15 ml of elution buffer,. and ≈1.5 ml fractions were collected. Fraction(s) with the peak protein concentrations (protein analysis performed on a spectrophotometer at 280 nm) were selected and used in enzyme assays.\nA discontinuous method descrobed by Ko and McFadden^17 was employed with minor modifications to measure the ability of isocitrate lyase to convert isocitrate to succinate and glyoxylate. This method utilizes the colorimetric reaction between the phenylhydrozone of glyoxylate and ferricyanide. Reaction mixtures (92 mM MOPS, 5 mM MgCL2, 1 mM DTT, 1% phenylhydrazine, 4.4 mM isocitrate, in 0.5 ml with fractionated parasite lysate) were incubated in a 37° C. water bath for a determined amount of time. After incubation, enzymatic reactions were stopped with concentrated HCl, mixed with 25% (w/v) potassium ferricyanide, and then measured in a spectrophotometer at 520 nm."}}, "note": "Values joined by “and” are separate entries in the source; they are usually repeats but may differ in a detail not shown here. Identical values can stand only once. Like-named read-outs stand apart in the source and are kept apart here."}
{"smiles": "NC1C=CC=C(C(=O)O)C1", "note": "(centres unmarked) [gabaculine, 3-amino-2,3-dihydrobenzoic acid]", "values": [{"measurement": "CPM restricted (tritiated uracil incorporation)", "setting": "[1]", "value": "around 50%"}, {"measurement": "counts (tritiated uracil incorporation)", "setting": "[1]", "value": "about 5,000 CPM"}, {"measurement": "inhibition at 5000 µM", "setting": "[1]; Toxoplasma gondii, Fibroblast, 96 h, read-out: growth of T. gondii inhibited", "value": "~60", "unit": "%"}, {"measurement": "Parasite growth over the 8 day time course (CPM)", "setting": "[1]; gabaculine 20 mM, P/S", "value": "restricted"}, {"measurement": "Parasite growth of R5 strain over 8 days (CPM)", "setting": "[2]", "value": "restricted in cultures with 20 mM gabaculine (gabaculine) over the first 6 days of culture"}, {"measurement": "toxicity to the foreskin fibroblasts", "setting": "[3]", "value": "no toxicity"}, {"measurement": "approximate 95% C1 count (mean parasite count per field)", "setting": "[4]; gabaculine 0.2 μg/ml", "value": "~1300"}, {"measurement": "approximate 95% C1 count (mean parasite count per field)", "setting": "[4]; gabaculine 2 μg/ml", "value": "~600"}, {"measurement": "approximate 95% C1 count (mean parasite count per field)", "setting": "[4]; gabaculine 20 μg/ml", "value": "~200"}, {"measurement": "IC50", "setting": "[5]; Plasmodium falciparum", "value": "≥ 45", "unit": "µg/mL"}]}
{"smiles": "O=C(O)CNCP(=O)(O)O", "note": "[NPMG, N-(phosphonomethyl) glycine]", "values": [{"measurement": "CPM restricted (tritiated uracil incorporation)", "setting": "[1]; NPMG 3.12 mM, 4 day, medium around 72,000", "value": "around 60%"}, {"measurement": "counts (tritiated uracil incorporation)", "setting": "[1]; NPMG 4.5 mM, 4 day, medium around 72,000, no RH around 2,000 CPM", "value": "about 12,000 CPM"}, {"measurement": "product rescue: effect of added PABA on inhibition by NPMG", "setting": "[1]; PABA added to cultures", "value": "abrogates"}, {"measurement": "inhibition at 4500 µM", "setting": "[1]; Toxoplasma gondii, Fibroblast, 96 h, NPMG 4.5 mM, 4 day, read-out: parasite growth inhibited", "value": "~80", "unit": "%"}, {"measurement": "approximate 95% C1 count (mean parasite count per field)", "setting": "[4]; NPMG 0.45 μg/ml", "value": "~1200"}, {"measurement": "approximate 95% C1 count (mean parasite count per field)", "setting": "[4]; NPMG 4.5 μg/ml", "value": "~900"}, {"measurement": "approximate 95% C1 count (mean parasite count per field)", "setting": "[4]; NPMG 0.045", "value": "~1200"}, {"measurement": "effect of PABA on the effect of NPMG on C. parvum", "setting": "[4]; PABA added", "value": "not abrogated by PABA"}, {"measurement": "IC50", "setting": "[6]; read-out: IC 50", "value": 0.823, "unit": "µg/mL"}, {"measurement": "IC90", "setting": "[6]; read-out: IC90", "value": 2.51, "unit": "µg/mL"}, {"measurement": "antagonism of glyphosate growth inhibition by products", "setting": "[5]; asexual erythrocytic forms, PABA and folate added", "value": "PABA and folate antagonism of growth inhibition"}, {"measurement": "CPM for A", "setting": "[7]", "value": "28138 ± 2216 CPM and 25097 ± 1398 CPM"}, {"measurement": "EPSP synthase enzyme activity", "setting": "[8]", "value": "inhibition"}]}
{"smiles": "O=C(O)CC[N+](=O)[O-]", "note": "[3-NPA, 3-Nitropropionic acid]", "values": [{"measurement": "CPM restricted (tritiated uracil incorporation)", "setting": "[1]; 3-NPA 0.006 mg ml, 4-day, medium about 30,000 CPM", "value": "around 60%"}, {"measurement": "effect on Cryptosporidia in vitro", "setting": "[4]", "value": "inhibited"}, {"measurement": "Isocitrate lyase enzyme activity", "setting": "[9]", "value": "inhibition"}]}
